Source: patent US10787462B2, “Heterocyclic compound” (TAKEDA PHARMACEUTICAL COMPANY LIMITED, priority 2015, dated 2020)

These molecules were tested against T1, human RIPK1 (1-375) (Homo sapiens, UniProt Q13546) (assay: Human RIPK1 enzyme inhibitory effect (ADP-Glo Kinase Assay)). Conditions: 10 μM test compound; well without enzyme = 100% inhibition.
T1 construct: human RIPK1 (1-375) gene; GST; made in house; host or cells: Sf-9 insect cells
T1 sequence (Q13546 1-375): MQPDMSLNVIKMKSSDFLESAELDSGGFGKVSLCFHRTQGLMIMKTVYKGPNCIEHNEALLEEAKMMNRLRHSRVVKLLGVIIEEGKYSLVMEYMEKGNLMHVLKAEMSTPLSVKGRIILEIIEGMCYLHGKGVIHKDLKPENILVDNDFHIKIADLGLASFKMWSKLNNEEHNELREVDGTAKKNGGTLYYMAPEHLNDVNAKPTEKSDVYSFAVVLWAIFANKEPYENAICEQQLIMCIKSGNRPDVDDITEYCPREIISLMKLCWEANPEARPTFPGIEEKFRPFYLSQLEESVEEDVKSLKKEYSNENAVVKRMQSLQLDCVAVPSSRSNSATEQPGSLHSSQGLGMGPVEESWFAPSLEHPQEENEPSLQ
Format: biochemical
Outline: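 ADP-Glo luminescence read-out of ADP formed over 120 min at room temperature after adding 0.6 mM ATP solution (stock concentration). Compound and Sf-9-expressed, GST-purified RIPK1 (1-375) were first incubated together for 20 min in HEPES pH 7.5 buffer with MgCl2, Tween-20 and DTT.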

human RIPK1 enzyme inhibitory effect at 10 μM (% inhibition) [%]	Molecule
97	(3S)-7-chloro-3-(3-chloro-1-oxo- 2-(pyrazin-2-ylmethyl)-2,4,5,7- tetrahydro-6H-pyrazolo[3,4- c]pyridin-6-yl)-5-methyl-2,3- dihydro-1,5-benzoxazepin-4(5H)- one [Example 74]

Same assay, conditions: read-out: human RIPK1 enzyme inhibitory effect at 10 μM (% inhibition), 10 μM test compound; well without enzyme = 100% inhibition

inhibition at 10 µM [%]	Molecule
100	CN1C(=O)[C@@H](N2CCc3c(nn(Cc4ccccc4)c3C3CC3)C2=O)COc2ccccc21 [Example 159, (3S)-3-(2-benzyl-3-cyclopropyl-7-oxo-2,4,5,7-tetrahydro-6H-pyrazolo[3,4-c]pyridin-6-yl)-5-methyl-2,3-dihydro-1,5-benzoxazepin-4(5H)-one]
99	COc1ccc(Cn2cc3c(n2)C(=O)N([C@H]2COc4ccccc4N(C)C2=O)CC3)cc1 [Example 161, (3S)-3-(2-(4-methoxybenzyl)-7-oxo-2,4,5,7-tetrahydro-6H-pyrazolo[3,4-c]pyridin-6-yl)-5-methyl-2,3-dihydro-1,5-benzoxazepin-4(5H)-one]
99	CN1C(=O)[C@@H](N2CCc3cn(Cc4ccc(C#N)cc4F)nc3C2=O)COc2ccccc21 [Example 162, 3-fluoro-4-((6-((3S)-5-methyl-4-oxo-2,3,4,5-tetrahydro-1,5-benzoxazepin-3-yl)-7-oxo-4,5,6,7-tetrahydro-2H-pyrazolo[3,4-c]pyridin-2-yl)methyl)benzonitrile]
53	CN1C(=O)[C@@H](N2CCc3cn(CC4CCS(=O)(=O)C4)nc3C2=O)COc2ccccc21 (stereo partly drawn) [Example 163, (3S)-3-(2-((1,1-dioxidotetrahydrothiophen-3-yl)methyl)-7-oxo-2,4,5,7-tetrahydro-6H-pyrazolo[3,4-c]pyridin-6-yl)-5-methyl-2,3-dihydro-1,5-benzoxazepin-4(5H)-one]
98	CN1C(=O)[C@@H](N2CCc3cn(Cc4ccc(S(C)(=O)=O)cc4)nc3C2=O)COc2ccccc21 [Example 164, (3S)-5-methyl-3-(2-(4-(methylsulfonyl)benzyl)-7-oxo-2,4,5,7-tetrahydro-6H-pyrazolo[3,4-c]pyridin-6-yl)-2,3-dihydro-1,5-benzoxazepin-4(5H)-one]
99	CN1C(=O)[C@@H](N2CCc3cn(Cc4c(Cl)cccc4C#N)nc3C2=O)COc2ccccc21 [Example 165, 3-chloro-2-((6-((3S)-5-methyl-4-oxo-2,3,4,5-tetrahydro-1,5-benzoxazepin-3-yl)-7-oxo-4,5,6,7-tetrahydro-2H-pyrazolo[3,4-c]pyridin-2-yl)methyl)benzonitrile]
88	CN1C(=O)[C@@H](N2CCc3cn(Cc4cccc(S(C)(=O)=O)c4)nc3C2=O)COc2ccccc21 [Example 166, (3S)-5-methyl-3-(2-(3-(methylsulfonyl)benzyl)-7-oxo-2,4,5,7-tetrahydro-6H-pyrazolo[3,4-c]pyridin-6-yl)-2,3-dihydro-1,5-benzoxazepin-4(5H)-one]
100	CN1C(=O)[C@@H](N2CCc3cn(Cc4ccc(Cl)cc4F)nc3C2=O)COc2ccccc21 [Example 168, (3S)-3-(2-(4-chloro-2-fluorobenzyl)-7-oxo-2,4,5,7-tetrahydro-6H-pyrazolo[3,4-c]pyridin-6-yl)-5-methyl-2,3-dihydro-1,5-benzoxazepin-4(5H)-one]
80	CN1C(=O)[C@@H](N2CCc3c(nn(Cc4ccccc4)c3-c3cnn(C)c3)C2=O)COc2ccccc21 [Example 169, (3S)-3-(2-benzyl-3-(1-methyl-1H-pyrazol-4-yl)-7-oxo-2,4,5,7-tetrahydro-6H-pyrazolo[3,4-c]pyridin-6-yl)-5-methyl-2,3-dihydro-1,5-benzoxazepin-4(5H)-one]
97	CN1C(=O)[C@@H](N2CCc3cn(CC4CCCOC4)nc3C2=O)COc2ccccc21 (stereo partly drawn) [Example 170, (3S)-5-methyl-3-(7-oxo-2-(tetrahydro-2H-pyran-3-ylmethyl)-2,4,5,7-tetrahydro-6H-pyrazolo[3,4-c]pyridin-6-yl)-2,3-dihydro-1,5-benzoxazepin-4(5H)-one]
88	CN1C(=O)[C@@H](N2CCc3cn(CC4CCOC4)nc3C2=O)COc2ccccc21 (stereo partly drawn) [Example 171, (3S)-5-methyl-3-(7-oxo-2-(tetrahydrofuran-3-ylmethyl)-2,4,5,7-tetrahydro-6H-pyrazolo[3,4-c]pyridin-6-yl)-2,3-dihydro-1,5-benzoxazepin-4(5H)-one]
99	CN1C(=O)[C@@H](N2CCc3cn(Cc4cc(C#N)ccc4F)nc3C2=O)COc2ccccc21 [Example 172, 4-fluoro-3-((6-((3S)-5-methyl-4-oxo-2,3,4,5-tetrahydro-1,5-benzoxazepin-3-yl)-7-oxo-4,5,6,7-tetrahydro-2H-pyrazolo[3,4-c]pyridin-2-yl)methyl)benzonitrile]
98	CN1C(=O)[C@@H](N2CCc3cn(CC4(C)CCC4)nc3C2=O)COc2ccccc21 [Example 173, (3S)-5-methyl-3-(2-((1-methylcyclobutyl)methyl)-7-oxo-2,4,5,7-tetrahydro-6H-pyrazolo[3,4-c]pyridin-6-yl)-2,3-dihydro-1,5-benzoxazepin-4(5H)-one]
101	CN1C(=O)[C@@H](N2CCc3c(nn(Cc4ccccc4)c3Cl)C2=O)COc2cc(C(=O)NCCOCCOCCOCCNC(=O)c3ccc4c(c3)OC[C@H](N3CCc5c(nn(Cc6ccccc6)c5Cl)C3=O)C(=O)N4C)ccc21 [Example 174, (3S)-3-(2-benzyl-3-chloro-7-oxo-2,4,5,7-tetrahydro-6H-pyrazolo[3,4-c]pyridin-6-yl)-N-(13-((3S)-3-(2-benzyl-3-chloro-7-oxo-2,4,5,7-tetrahydro-6H-pyrazolo[3,4-c]pyridin-6-yl)-5-methyl-4-oxo-2,3,4,5-tetrahydro-1,5-benzoxazepin-8-yl)-13-oxo-3,6,9-trioxa-12-azatridec-1-yl)-5-methyl-4-oxo-2,3,4,5-tetrahydro-1,5-benzoxazepine-8-carboxamide]
